# From the supplement of paper PMC4862054
# Columns and labels:
# [1] = system: HDQ-P1; conditions: 72 h
# In short: (§1)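 Breast cancer cell lines (20 µl suspension) were seeded into 384-well plates holding compound at 5 concentrations in 10-fold steps over a compound-specific 10,000-fold range, then incubated 72 h. Cell death was read first by CellTox Green fluorescence (485/520 nm), then viability by CellTiter-Glo luminescence after 10 min at room temperature. Each plate was normalised to 0.1 % DMSO and a positive kill control. EC50 was fitted from the dose-response curves and censored at the top concentration.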
# [2] = system: MDA-MB-468; conditions: 72 h
# In short: as §1
# [3] = system: BT-474; experiment: drug sensitivity score (DSS), CellTox Green (DSS (AUC-based score)); higher = stronger drug effect (viability inhibition or cytotoxicity); extreme values may be limits of the assay; conditions: incubation time: 72 h
# In short: (§2)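 After 72 h of incubation in 384-well plates with compound at 5 concentrations (10-fold steps, 10,000-fold range set per compound), breast cancer cell lines seeded in 20 µl suspension were read first for CellTox Green fluorescence at 485/520 nm. CellTiter-Glo luminescence was measured next, after 10 min at room temperature. Normalisation on each plate used 0.1 % DMSO and a positive kill control, and the drug sensitivity score was computed from the area under the fitted dose-response curve.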
# [4] = system: DU-4475; experiment: as above; conditions: incubation time: 72 h
# In short: as §2
# [5] = system: HCC1937; experiment: as above; conditions: incubation time: 72 h
# In short: as §2
# [6] = system: HDQ-P1; experiment: as above; conditions: incubation time: 72 h
# In short: as §2
# [7] = system: MDA-MB-231; experiment: as above; conditions: incubation time: 72 h
# In short: as §2
# [8] = system: MDA-MB-436; experiment: as above; conditions: incubation time: 72 h
# In short: as §2
# [9] = system: MDA-MB-453; experiment: as above; conditions: incubation time: 72 h
# In short: as §2
# [10] = system: MFM-223; experiment: as above; conditions: incubation time: 72 h
# In short: as §2
# [11] = system: BT-474; conditions: 72 h
# In short: as §1
# [12] = system: BT-474; experiment: normalised viability (% of control), CellTiter-Blue; higher = more viable cells (about 100 = DMSO control); conditions: incubation time: 72 h
# Description: (§3)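 DSRT, CellTiter-Blue viability, 72 h incubation. Signal is normalised to DMSO and benzethonium chloride controls. Value is the normalised response at dose 3.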
# [13] = system: BT-549; experiment: as above; conditions: incubation time: 72 h
# Description: as §3
# [14] = system: CAL-120; experiment: as above; conditions: incubation time: 72 h
# Description: as §3
# [15] = system: CAL-148; experiment: as above; conditions: incubation time: 72 h
# Description: as §3
# [16] = system: CAL-51; experiment: as above; conditions: incubation time: 72 h
# Description: as §3
# [17] = system: CAL-85-1; experiment: as above; conditions: incubation time: 72 h
# Description: as §3
# [18] = system: DU-4475; experiment: as above; conditions: incubation time: 72 h
# Description: as §3
# [19] = system: HCC1143; experiment: as above; conditions: incubation time: 72 h
# Description: as §3
# [20] = system: HCC1599; experiment: as above; conditions: incubation time: 72 h
# Description: as §3
# [21] = system: HCC1937; experiment: as above; conditions: incubation time: 72 h
# Description: as §3
# [22] = system: HDQ-P1; experiment: as above; conditions: incubation time: 72 h
# Description: as §3
# [23] = system: Hs578T; experiment: as above; conditions: incubation time: 72 h
# Description: as §3
# [24] = system: MDA-MB-231; experiment: as above; conditions: incubation time: 72 h
# Description: as §3
# [25] = system: MDA-MB-436; experiment: as above; conditions: incubation time: 72 h
# Description: as §3
# [26] = system: MDA-MB-453; experiment: as above; conditions: incubation time: 72 h
# Description: as §3
# [27] = system: MDA-MB-468; experiment: as above; conditions: incubation time: 72 h
# Description: as §3
# [28] = system: MFM-223; experiment: as above; conditions: incubation time: 72 h
# Description: as §3
# [29] = system: SK-BR-3; experiment: as above; conditions: incubation time: 72 h
# Description: as §3
SMILES,"EC50, CellTiter-Glo [2] [nM]","EC50, CellTiter-Glo [11] [nM]","EC50, CellTiter-Glo [1] [nM]",drug sensitivity score [3],drug sensitivity score [4],drug sensitivity score [5],drug sensitivity score [6],drug sensitivity score [7],drug sensitivity score [8],drug sensitivity score [9],drug sensitivity score [10],also measured
CC(=O)N(O)CCCCCNC(=O)CCC(=O)N(O)CCCCCNC(=O)CCC(=O)N(O)CCCCCN [Deferoxamine],815,–,1850,0,0,0,0,0,0,0,0,–
CC(=O)c1c(C)c2cnc(Nc3ccc(N4CCNCC4)cn3)nc2n(C2CCCC2)c1=O [Palbociclib],181,352,–,0,0,0,0,0,0,0,0,–
CC[C@@H]1C(=O)OC[C@@H]1Cc1cncn1C [Pilocarpine],–,–,–,0,0,0,0,0,0,0,0,normalised viability ([12]; 400 nM): 116%; normalised viability ([13]; 400 nM): 111%; normalised viability ([14]; 400 nM): 107%; normalised viability ([15]; 40 nM): 97.4%; normalised viability ([16]; 40 nM): 102%; normalised viability ([17]; 40 nM): 98%; normalised viability ([18]; 40 nM): 108%; normalised viability ([19]; 400 nM): 90.1%; normalised viability ([20]; 400 nM): 99.6%; normalised viability ([21]; 400 nM): 95.1%; normalised viability ([22]; 40 nM): 108%; normalised viability ([23]; 400 nM): 110%; normalised viability ([24]; 400 nM): 93.3%; normalised viability ([25]; 400 nM): 105%; normalised viability ([26]; 40 nM): 102%; normalised viability ([27]; 400 nM): 99.6%; normalised viability ([28]; 400 nM): 92.8%; normalised viability ([29]; 400 nM): 103%

# The next lines start with results.
"EC50, CellTiter-Glo [2] [nM]","EC50, CellTiter-Glo [11] [nM]",SMILES,"EC50, CellTiter-Glo [1] [nM]",drug sensitivity score [3],drug sensitivity score [4],drug sensitivity score [5],drug sensitivity score [6],drug sensitivity score [7],drug sensitivity score [8],drug sensitivity score [9],drug sensitivity score [10],also measured
2240,644,COc1cc(F)c(F)c(Nc2ccc(I)cc2F)c1NS(=O)(=O)C1(C[C@H](O)CO)CC1 [Refametinib],119,0,8.58,0,0,16.3,0,0,0,–
–,> 10000,O=C1CN2Cc3c(ccc(Cl)c3Cl)N=C2N1 [Anagrelide],–,0,0,0,0,0,0,0,0,normalised viability ([12]; 100 nM): 122%; normalised viability ([13]; 100 nM): 92.5%; normalised viability ([14]; 100 nM): 85.6%; normalised viability ([15]; 10 nM): 97%; normalised viability ([16]; 10 nM): 98.7%; normalised viability ([17]; 10 nM): 91.6%; normalised viability ([18]; 10 nM): 98.6%; normalised viability ([19]; 100 nM): 84.8%; normalised viability ([20]; 100 nM): 104%; normalised viability ([21]; 100 nM): 94.9%; normalised viability ([22]; 10 nM): 114%; normalised viability ([23]; 100 nM): 88%; normalised viability ([24]; 100 nM): 99.2%; normalised viability ([25]; 100 nM): 94.2%; normalised viability ([26]; 10 nM): 109%; normalised viability ([27]; 100 nM): 95.2%; normalised viability ([28]; 100 nM): 93%; normalised viability ([29]; 100 nM): 60.9%
